Measured values taken from ChEMBL document CHEMBL5661943, “ASAP - In vitro antiviral effect” (2024).
Where “and” joins values, the source holds several entries; their conditions need not be identical. Equal values may be shown once.

Tests used:
[1] = test system: Zika virus; assay: EC50 is reported via analysis of immunofluorescence staining. The assay has been performed by Icahn School of Medicine at Mount Sinai.; assay type: functional, organism-based, Chlorocebus sabaeus, VeroE6/TMPRSS2; details: Baseline response 0 %, P-gp concentration 2 uM, P-gp inhibitor Elacidar
[2] = test system: dengue virus type 2; assay: Functional assay to measure dose dependent changes in antiviral-drug inhibitory efficacy against Dengue virus type 2 New Guinea C in Vero E6 miRFP670 cells (cotreated with P-gp inhibitor, CP100356). Cells are treated with antiviral candidates that are serially diluted, following infection, cells are fixed. EC50 is reported via analysis of fluorescence intensity using high-content imager. The …; assay type: organism-based, Chlorocebus sabaeus, Vero C1008; details: Baseline response 0 %, P-gp concentration 500 nM, P-gp inhibitor CP100356
[3] = test system: dengue virus type 2; assay: Functional immunofluorescence assay to measure dose dependent changes in antiviral-drug inhibitory efficacy against Dengue virus type 2 Thailand/16681/84 in Vero E6/TMPRSS2 cells. Cells are treated with antiviral candidates that are serially diluted, following infection, cells are fixed. EC50 is reported via analysis of immunofluorescence staining. The assay has been performed by Icahn School of Medicine at Mount Sinai.; assay type: organism-based, Chlorocebus sabaeus
[4] = test system: dengue virus type 2; assay: Functional immunofluorescence assay to measure dose dependent changes in antiviral-drug inhibitory efficacy against Dengue virus type 2 Thailand/16681/84 in Vero E6/TMPRSS2 cells (cotreated with P-gp inhibitor, Elacridar). Cells are treated with antiviral candidates that are serially diluted, following infection, cells are fixed. EC50 is reported via analysis of immunofluorescence staining. The assay has been performed by Icahn School of Medicine at Mount Sinai.; assay type: organism-based, Chlorocebus sabaeus, VeroE6/TMPRSS2
[5] = test system: Zika virus; assay: Functional CPE-based assay to measure dose dependent changes in antiviral-drug inhibitory efficacy against Zika virus MR766 in Vero E6 miRFP670 cells (cotreated with P-gp inhibitor, CP100356). Cells are treated with antiviral candidates that are serially diluted. EC50 is reported via analysis of MTS assay as a readout of CPE. The assay has been performed by KU Leuven.; assay type: organism-based, Chlorocebus sabaeus, Vero C1008; details: Baseline response 0 %, Maximum response 100 %, P-gp inhibitor CP100356
[6] = test system: Zika virus; assay: Functional immunofluorescence assay to measure dose dependent changes in antiviral-drug inhibitory efficacy against Zika virus PRVABC59 in Vero E6/TMPRSS2 cells. Cells are treated with antiviral candidates that are serially diluted, following infection, cells are fixed. EC50 is reported via analysis of immunofluorescence staining. The assay has been performed by Icahn School of Medicine at Mount Sinai.; assay type: organism-based, Chlorocebus sabaeus
[7] = test system: Zika virus; assay: Functional CPE-based assay to measure dose dependent changes in antiviral-drug inhibitory efficacy against Zika virus MR766 in Vero E6 miRFP670 cells. Cells are treated with antiviral candidates that are serially diluted. EC50 is reported via analysis of MTS assay as a readout of CPE. The assay has been performed by KU Leuven.; assay type: organism-based, Chlorocebus sabaeus, Vero C1008; details: Maximum response 100 %

Compound: C[C@@]1(O)[C@H](O)[C@@H](CO)O[C@H]1n1ccc2c(N)ncnc21 [BETA-2'-C-METHYL-7-DEAZA-ADENOSINE]
- EC90 ([1]; EC90 CI (lower) 0.301 uM, EC90 CI (upper) 7.202 uM, Hill slope -3.742, Maximum measured 131.957 %, Maximum response 100 %, Minimum measured 2.652 %, R squared 0.767): 4.77 µM
- EC90 ([1]; Hill slope -0.425, Maximum measured 98.697 %, Maximum response 100 %, Minimum measured 17.927 %, R squared 0.629): > 10 µM
- EC90 ([1]; Hill slope -1.446, Maximum measured 54.457 %, Maximum response 40 %, Minimum measured 5.333 %, R squared 0.69): > 10 µM
- EC90 ([1]; Hill slope -2.191, Maximum measured 87.134 %, Maximum response 60 %, Minimum measured 12.691 %, R squared 0.704): > 10 µM
- EC90 ([2]; EC90 CI (lower) 3.48 uM, EC90 CI (upper) 7.993 uM, Hill slope -1.843, Maximum measured 93.524 %, Maximum response 100 %, Minimum measured 0.518 %, R squared 0.959): 57.2 µM
- EC90 ([2]; EC90 CI (lower) 4.11 uM, EC90 CI (upper) 8.283 uM, Hill slope -1.641, Maximum measured 89.89 %, Maximum response 100 %, Minimum measured 0.257 %, R squared 0.971): 84.9 µM
- EC90 ([2]; EC90 CI (lower) 6.077 uM, EC90 CI (upper) 11.974 uM, Hill slope -2.703, Maximum measured 104.698 %, Maximum response 100 %, Minimum measured 1.385 %, R squared 0.989): 43.4 µM
- EC90 ([2]; EC90 CI (lower) 9.48 uM, EC90 CI (upper) 152.006 uM, Hill slope -3.766, Maximum measured 162.932 %, Maximum response 100 %, Minimum measured 1.715 %, R squared 0.543): 122 µM
- EC90 ([2]; EC90 CI (lower) 10.134 uM, EC90 CI (upper) 21.901 uM, Hill slope -2.086, Maximum measured 107.044 %, Maximum response 100 %, Minimum measured 0.795 %, R squared 0.961): 122 µM
- EC90 ([2]; EC90 CI (lower) 13.312 uM, EC90 CI (upper) 68.915 uM, Hill slope -3.556, Maximum measured 71.93 %, Maximum response 65.616 %, Minimum measured 1.236 %, R squared 0.774): 104 µM
- EC90 ([2]; EC90 CI (lower) 21.742 uM, EC90 CI (upper) 34.481 uM, Hill slope -3.397, Maximum measured 108.212 %, Maximum response 100 %, Minimum measured 0.235 %, R squared 0.983): 99.8 µM
- EC50 ([3]; VeroE6/TMPRSS2): 0.045 µM
- EC90 ([3]; VeroE6/TMPRSS2, Baseline response 43.084 %, EC90 CI (lower) 0 uM, EC90 CI (upper) 0 uM, Hill slope -11.259, Maximum measured 119.711 %, Maximum response 115.226 %, Minimum measured 27.831 %, R squared 0.402): 0.055 µM
- EC90 ([4]; Baseline response 0 %, Hill slope -0.711, Maximum measured 113.708 %, Maximum response 100 %, Minimum measured 27.128 %, P-gp concentration 2 uM, R squared 0.834, P-gp inhibitor Elacidar): > 10 µM
- EC90 ([4]; Dengue virus, VeroE6/TMPRSS2): > 10 µM
- EC50 ([4]; veroe6/tmprss2): 8.6 µM and 2.59 µM
- EC90 ([5]; EC90 CI (lower) 1.33 uM, EC90 CI (upper) 21.491 uM, Hill slope 2.016, Maximum measured 119.759 %, Minimum measured 49.499 %, P-gp concentration 500 nM, R squared 0.708): 5.34 µM
- EC90 ([5]; EC90 CI (lower) 2.362 uM, EC90 CI (upper) 73.078 uM, Hill slope 2.992, Maximum measured 157.756 %, Minimum measured 1.417 %, P-gp concentration 500 nM, R squared 0.838): 13.1 µM
- EC90 ([5]; EC90 CI (lower) 3.073 uM, EC90 CI (upper) 52.816 uM, Hill slope 2.304, Maximum measured 128.398 %, Minimum measured 15.752 %, P-gp concentration 500 nM, R squared 0.861): 12.7 µM
- EC90 ([5]; EC90 CI (lower) 6.142 uM, EC90 CI (upper) 39.815 uM, Hill slope 2.116, Maximum measured 119.257 %, Minimum measured 3.222 %, P-gp concentration 500 nM, R squared 0.943): 15.6 µM
- EC90 ([5]; EC90 CI (lower) 6.409 uM, EC90 CI (upper) 24.739 uM, Hill slope 3.129, Maximum measured 131.405 %, Minimum measured -2.605 %, P-gp concentration 500 nM, R squared 0.913): 12.6 µM
- EC90 ([5]; EC90 CI (lower) 8.9 uM, EC90 CI (upper) 38.162 uM, Hill slope 2.016, Maximum measured 114.801 %, Minimum measured 5.397 %, P-gp concentration 500 nM, R squared 0.961): 18.4 µM
- EC90 ([5]; EC90 CI (lower) 10.323 uM, EC90 CI (upper) 42.716 uM, Hill slope 1.659, Maximum measured 113.143 %, Minimum measured 4.385 %, P-gp concentration 100 nM, R squared 0.967): 21 µM
- EC90 ([5]; EC90 CI (lower) 14.003 uM, EC90 CI (upper) 30.102 uM, Hill slope 3.316, Maximum measured 112.736 %, Minimum measured -6.737 %, P-gp concentration 500 nM, R squared 0.984): 20.5 µM
- EC90 ([5]; EC90 CI (lower) 17.062 uM, EC90 CI (upper) 43.343 uM, Hill slope 2.491, Maximum measured 123.53 %, Minimum measured -2.699 %, P-gp concentration 500 nM, R squared 0.955): 27.2 µM
- EC90 ([5]; EC90 CI (lower) 18.425 uM, EC90 CI (upper) 28.103 uM, Hill slope 2.492, Maximum measured 115.262 %, Minimum measured 4.379 %, P-gp concentration 500 nM, R squared 0.954): 22.8 µM
- EC90 ([5]; EC90 CI (lower) 23.748 uM, EC90 CI (upper) 39.727 uM, Hill slope 2.255, Maximum measured 100.144 %, Minimum measured -8.11 %, P-gp concentration 500 nM, R squared 0.982): 30.7 µM
- EC90 ([5]; EC90 CI (lower) 28.979 uM, EC90 CI (upper) 80.3 uM, Hill slope 3.379, Maximum measured 85.565 %, Minimum measured -8.762 %, P-gp concentration 500 nM, R squared 0.96): 48.2 µM
- EC90 ([5]; Hill slope 1.338, Maximum measured 86.023 %, Minimum measured -1.473 %, P-gp concentration 500 nM, R squared 0.993): > 50 µM
- EC50 ([6]; VeroE6/TMPRSS2): > 10 µM
- EC90 ([6]; VeroE6/TMPRSS2, Baseline response 0 %, Hill slope -0.033, Maximum measured 93.578 %, Maximum response 100 %, Minimum measured 41.57 %, R squared 0.011): > 10 µM
- EC90 ([7]; Baseline response 0 %, EC90 CI (lower) 15.507 uM, EC90 CI (upper) 28.219 uM, Hill slope 1.884, Maximum measured 104.267 %, Minimum measured 0.699 %, R squared 0.993): 20.9 µM
- EC90 ([7]; Zika virus, Vero C1008, Baseline response 0 %, Hill slope 0.758, Maximum measured 14.246 %, Minimum measured -0.672 %, R squared 0.091): > 50 µM
- EC90 ([7]; Zika virus, Vero C1008, Baseline response 0 %, Hill slope 2.277, Maximum measured 74.443 %, Minimum measured -3.247 %, R squared 0.993): > 50 µM
- EC90 ([7]; Zika virus, Vero C1008, Baseline response 0 %, EC90 CI (lower) 6.665 uM, EC90 CI (upper) 20.693 uM, Hill slope 1.418, Maximum measured 92.41 %, Minimum measured 5.185 %, R squared 0.921): 11.7 µM
